# Measured values from patent US20070202547A1, “Methods For Detecting Substances Which Bind To The Amyloid Precursor Protein Or Beta Amyloid Fragments, And Binding Compounds” (priority 2004, published 2007).
# Columns and labels:
# Assay type in all cases: biochemical
# [1] = molecular target: gamma-secretase (Homo sapiens, UniProt P05067); assay: Gamma-secretase cleavage of CTFβ substrate (HeLa cell membrane extract); conditions: Aβ40 detection with 6E-10/G2-10, read-out: CTFβ CLEAVAGE AT POSITION 40
# Protocol: Accordingly, Examples 1-4 were tested for their ability to inhibit gamma-secretase cleavage of both a full-length CTFβ substrate, as described in Li, 2000, Proc. Natl Acad Sci. 97:6138-6143. The assays were carried out as follows:
# Inhibition of CTFβ Cleavage
# • 10 μL 10× protease inhibitor cocktail (Roche, cat # 1836153) • 25 μL 4× Buffer (50 mM PIPES pH7.0, 150 mM KCl, 5 mM MgCl2, 5 mM CaCl2) • 2 μL 10% CHAPSO • 5 μL HeLa cell membrane extract characterized for gamma-secretase activity • 7 μL 25 μM bacterially expressed CTFβ • 51 μL water • 1 μL compound in DMSO The reactions were incubated at 37° C. for 150 min and quenched with 25 μL 5× RIPA buffer (750mM NaCl, 5% NP-40, 2.5% DOC, 0.5% SDS, 250 mM Tris H8.0). Detection:
# Gamma-secretase cleavage of the CTFβ substrate was assessed by incubating 50 μL of the reaction with 25 μL of 4 μg/mL biotinylated antibody 6E-10 which is specific for the N-terminal region of Aβ, and 25 μL of 1.5 μg/mL of a ruthinylated antibody G2-10, which is specific to the C-terminal region of Aβ40. The C-terminal region is present only after gamma secretase cleavage of Aβ. The antibodies were allowed to bind overnight at room temperature. The following day, 25 μL of 80 μg/mL streptavidin-coated Dynabeads (M-280) were added to each reaction, allowed to bind for 30 minutes, and quenched with 275 μL IGEN assay buffer. Quantification of the gamma-secretase cleavage products was carried out using an Origen Analyzer.
# [2] = molecular target: T1, BACE2 (Homo sapiens, UniProt P05067, A673V/D672E/K670N/M671F); assay: BACE2 cleavage of APP at the beta-secretase cleavage site (ALPHA); conditions: MBP-biotinylated APP fusion protein with NFEV site, pH 4.5, 30 minutes
# T1 construct: IC50, BACE2 cleavage of APP at the beta-secretase cleavage site; other: MBP-biotinylated APP fusion protein with NFEV s; activity against BACE2 cleavage of APP at the beta-secretase position; other: result in words; biotin label
# Protocol: (§1) The effect of Examples 1-4 on cleavage of APP at the beta-secretase cleavage site was assayed as follows:
# (§2) • 25 μL 0.2 M Sodium Acetate, pH 4.5 • 10 μL 10× protease inhibitor cocktail (Roche, cat # 1836153) • 10 μL Bovine Serum Albumin (1 mg/mL solution) • 4 μL 5% CHAPS • 1 μL EDTA (150 mM, pH 4.5) • 2 μL DF • 4 μL MBP(Maltose binding protein)—biotininylated APP fusion protein containing the NFEV BACE cleavage site (bacterially expressed, 10 μM solution) • 1 μL DMSO or compound dissolved in DMSO • 2 μL BACE2 (CHO cell expressed protein, 250 nM) • 41 μL distilled water The reactions were incubated at 37° C. for 30 minutes, and were then quenched with 4 μL 1 M TrisHCl, pH 8.0. Detection of MBP Biotin APP(NF) Cleavage Product using ALPHA ALPHA Assay Mix was Prepared as Follows: • 20 μL Streptavidin Donor Beads (from AlphaScreen General IgG (Protein A) Detection Kit Perkin Elmer Life Sciences); 10,000 pts (Part Number 6760617M) • 20 μL Protein A Acceptor beads (from AlphaScreen General IgG (Protein A) Detection Kit Perkin Elmer Life Sciences); 10,000 pts (Part Number 6760617M) • 3.7 μL Affinity purified anti-NF antibody (203 μg/mL) (described in WO 02/094985) • 4.5 mL 0.1% BSA in PBS • 4 μL of quenched reaction mixture was combined with 46 μL of the assay mix. The reactions were incubated at room temperature overnight and read using the ALPHAQuest plate reader.
# [3] = test system: BACE2; assay: BACE2 cleavage of EV amyloid / Aβ (mass spectrometric analysis); conditions: 100 μM, result in words
# Protocol: The effect of inhibition of BACE 2 cleavage of EV amyloid was assayed using a protocol described in Shi et al, 2003, J. Biol. Chem., 278:21286-21294. The results of assaying Examples 1-4 at 100 μM are shown below: […]
# [4] = molecular target: BACE1 (Homo sapiens, UniProt P56817); assay: BACE1 cleavage of full-length APP or beta-site P5/P5' peptide (FIG. 3); conditions: relative to DMSO-treated
# Sequence of BACE1 (Homo sapiens, UniProt P56817) (P56817 46-501): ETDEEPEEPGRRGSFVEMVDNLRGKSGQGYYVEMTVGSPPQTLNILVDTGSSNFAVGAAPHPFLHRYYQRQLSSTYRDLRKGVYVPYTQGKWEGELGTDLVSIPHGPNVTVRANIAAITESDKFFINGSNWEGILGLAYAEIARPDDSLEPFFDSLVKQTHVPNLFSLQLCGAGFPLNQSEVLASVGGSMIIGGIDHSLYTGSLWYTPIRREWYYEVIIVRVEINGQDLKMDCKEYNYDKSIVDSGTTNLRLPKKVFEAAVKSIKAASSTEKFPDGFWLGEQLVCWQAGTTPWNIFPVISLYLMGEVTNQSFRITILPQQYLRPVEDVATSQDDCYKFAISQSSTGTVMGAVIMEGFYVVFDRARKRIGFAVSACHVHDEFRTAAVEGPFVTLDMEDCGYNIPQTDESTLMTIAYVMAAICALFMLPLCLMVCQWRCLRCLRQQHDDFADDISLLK
# Excerpt: (§3) FIG. 3(A) depicts inhibition by Statine-Val, which is a known inhibitor of BACE cleavage of both APP and APP fragments, including the beta-site P5/P5′ peptide fragment. […] depicts inhibition by Example 4. The graphs depict inhibition of cleavage of a full-length APP substrate (∘) or the beta-site P5/P5 fragment. (□). Enzymatic activity is shown relative to DMSO-treated BACE cleavage.
# [5] = test system: BACE1; assay: as above; conditions: relative to DMSO-treated
# Excerpt: as §3
# [6] = molecular target: T2, BACE2 (Homo sapiens, UniProt P05067, K670N/M671F/D672E/A673V); assay: BACE2 cleavage of APP at the beta-secretase cleavage site (ALPHA); conditions: result in words
# T2 construct: IC50, BACE2 cleavage of APP at the beta-secretase cleavage site; other: MBP-biotinylated APP fusion protein with NFEV s; activity against BACE2 cleavage of APP at the beta-secretase position; other: result in words; biotin label
# Protocol: as §1, §2
IC50 [1] [µM],IC50 [2] [µM],inhibition of BACE1 cleavage of beta-site P5/P5' peptide fragment [4],Compound,effect on BACE2 cleavage at all Aβ sites ([3]; FIG. 1),effect on BACE2 cleavage at position 34 [3],effect on BACE2 cleavage at positions 19 and 20 [3],inhibition of BACE1 cleavage of full-length APP substrate [5],activity against BACE2 cleavage of APP at the beta-secretase position [6]
49,~100,,O=C(O)COc1ccc2c(c1)CC(CCc1ccccc1)O2 (stereo not drawn) [Example 3],,,,,
,20,inhibits cleavage of APP only,"Oc1cc2c(cc1CCCOc1ccc(-c3nnn[nH]3)cc1Cl)OC(CCc1ccccc1)C2 (stereo not drawn) [Example 4, 6-{3-[2-chloro-4-(1H-tetrazol-5-yl)phenoxy]propyl}-2-(2-phenylethyl)-2,3-dihydro-1benzofuran-5-oI]",suppressed cleavage at all Aβ sites,blocked cleavage at position 34,enhanced cleavage of Aβ at positions 19 and 20,inhibits cleavage of APP only,capable of inhibiting BACE2 cleavage of APP at the beta-secretase position with similar effectiveness to their inhibition of BACE1 cleavage at the same site
